Measurements from PMC10348910, “Epigenetic reprogramming of cell cycle genes by ACK1 promotes breast cancer resistance to CDK4/6 inhibitor” (Oncogene, 2023).

Columns and labels:
[1] = system: cytochrome P450 (CYP) isoenzymes; assay type: in vitro ADME; conditions: human liver microsomes; CYP1A1/2, CYP2C9, CYP2C19, CYP2D6 and CYP3A4
[2] = system: Cal-148 xenografts; experiment: Cal-148 xenograft in mammary fat pad; assay type: in vivo, female SCID mice; conditions: 24 mg/Kg subcutaneously, 4 weeks
Method: In order to assess the in vivo implications of ACK1 inhibition in TNBCs, Cal-148 xenografts were established in mammary fat pad of female SCID mice. Once the tumors were palpable, the mice were injected subcutaneously with 24 mg/Kg of (R)-9b for 4 weeks and the tumor volumes were measured. On reaching the endpoint, the mice were sacrificed and the tumors were harvested, weighed and photographed. […] RNA was prepared from the tumors, followed by qRT-PCR.
Fig. 6 (R)-9b inhibits breast cancer xenograft tumor growth in vivo. A 2 × 10^6 Cal-148 cells were injected in the 4th inguinal mammary fat pad of female SCID mice. Once the tumors were palpable, the mice were treated subcutaneously with either vehicle (Captisol; n = 8) or (R)-9b at 24 mg/Kg (n = 8) five times a week, for 4 weeks. The tumor volumes were measured twice a week. B, C The tumors were harvested and photographed, and the weights were recorded. D RNA was prepared from the tumors, followed by qRT-PCR to determine the levels of CCNB1, CCNB2 and CDC20 mRNA (n = 3 each). […] The tumors were harvested, their weights were recorded and photographed. […]
All animal experiments were performed using the standards for humane care in accordance with the NIH Guide for the Care and Use of Laboratory Animals. […] Tumor volumes were measured twice a week using calipers. […]

[3] = target: ACK1 (Homo sapiens, UniProt Q07912); experiment: biochemical; conditions: 1 uM ATP; read-out: Compound IC50 (M) ACK1
[4] = system: MCF7, SKBR3, HCC-1395 and MDA-MB-453; experiment: apoptosis assay, Annexin V-FITC/PI flow cytometry; assay type: cell-based; conditions: 0.25, 0.5, 1 µM
Method: For proliferation assay, 5 × 10^4 cells were plated in 6-well plate and treated with either vehicle (DMSO) or varying concentrations of (R)-9b or palbociclib in complete media for 96 h and number of viable cells were counted by trypan blue exclusion assay. Breast cancer cell lines were treated with vehicle or varying concentrations of (R)-9b for 72 h. The cells were harvested, washed 2 times with PBS and incubated with 3 ul of Annexin V-FITC antibody according to the manufacturers protocol (BD Biosciences). Five µl Propidium iodide was used to stain necrotic cells. The cells were acquired using the BD FACSCalibur machine (BD Biosciences) and data was analyzed using FlowJo software. Cell cycle analysis was performed as mentioned earlier. Briefly, vehicle or (R)-9b (48 h) treated cells were harvested by trypsinization, washed 2 times with PBS, and fixed using chilled 70% Ethanol for 1 h, followed by 2 washes with PBS. […] The data were analyzed using FlowJo software. […]
(A) MCF7, SKBR3, HCC-1395 and MDA-MB-453 cells were treated with 0.25µM, 0.5µM and 1 µM (R)-9b for 96h. […] Quantification of the live, early apoptotic, late apoptotic and necrotic cells is represented using stacked columns. […]

ACK1, sequence (Q07912 whole entry): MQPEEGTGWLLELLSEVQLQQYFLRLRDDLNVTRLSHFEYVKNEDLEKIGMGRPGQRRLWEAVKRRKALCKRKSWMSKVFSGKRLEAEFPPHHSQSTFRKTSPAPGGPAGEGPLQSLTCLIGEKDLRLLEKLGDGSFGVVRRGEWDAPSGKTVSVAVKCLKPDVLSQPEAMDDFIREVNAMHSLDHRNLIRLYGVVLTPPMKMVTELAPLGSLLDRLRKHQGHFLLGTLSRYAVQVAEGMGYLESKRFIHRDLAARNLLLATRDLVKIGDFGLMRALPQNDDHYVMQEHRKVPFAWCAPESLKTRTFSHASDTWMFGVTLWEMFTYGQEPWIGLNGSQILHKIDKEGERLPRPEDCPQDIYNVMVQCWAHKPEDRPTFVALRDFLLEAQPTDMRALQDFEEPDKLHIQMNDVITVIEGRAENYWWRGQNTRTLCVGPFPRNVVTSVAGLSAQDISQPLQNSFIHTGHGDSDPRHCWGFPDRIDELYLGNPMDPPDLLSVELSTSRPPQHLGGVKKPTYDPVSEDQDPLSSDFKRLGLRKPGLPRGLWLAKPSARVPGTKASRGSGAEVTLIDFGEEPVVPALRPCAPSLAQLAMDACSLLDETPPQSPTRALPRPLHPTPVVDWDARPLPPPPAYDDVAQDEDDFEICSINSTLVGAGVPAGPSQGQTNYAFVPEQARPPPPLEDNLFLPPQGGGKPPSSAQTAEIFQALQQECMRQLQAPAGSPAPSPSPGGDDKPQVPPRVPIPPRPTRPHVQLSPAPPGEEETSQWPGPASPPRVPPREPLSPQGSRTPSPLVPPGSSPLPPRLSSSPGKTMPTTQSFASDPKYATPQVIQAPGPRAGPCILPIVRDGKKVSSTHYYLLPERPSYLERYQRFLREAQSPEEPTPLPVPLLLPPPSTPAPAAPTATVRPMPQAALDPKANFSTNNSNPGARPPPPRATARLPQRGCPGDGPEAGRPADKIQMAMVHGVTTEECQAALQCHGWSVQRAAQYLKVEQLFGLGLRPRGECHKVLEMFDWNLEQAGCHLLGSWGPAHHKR

potential to inhibit cytochrome P450 (CYP) isoenzymes [1]: low potential to inhibit | IC50 [3]: 1.25e-08 M
SMILES: CN1CCN(c2ccc(Nc3ncc(Cl)c(NC[C@H]4CCCO4)n3)cc2)CC1 [(R)-9b]
CCNB1, CCNB2 and CDC20 mRNA levels in tumors [2]: significant decrease | xenograft tumor growth ([2]; five times a week): significant suppression | number of cells undergoing apoptosis [4]: marked increase
